Measured values reported in patent US10206904B2, “Licofelone derivatives and methods of use” (The Board of Regents of the University of Oklahoma, priority 2015, dated 2019).
Several values for one entry are separate records, joined by “and”; a condition that tells them apart may be missing. Equal values may be shown once. Read-outs that look alike come from different tables or passages of the source.

How the values were obtained:
[1] = tested on: AOM-induced colon tumors
Description: After 42 weeks of experimental diet feeding and total 52 weeks of experimental duration, the rats were necropsied. After necropsy of the rats, the colonic tumors were analyzed histologically. Histopathological evaluation colonic tumor has been completed by two pathologists independently. Colonic tumors were histopathologically classified to adenomas or adenocarcinomas either exophytic (non-invasive) or endophytic (invasive).
Colonic tumors (CTs) were induced by colon specific carcinogen, azoxymethane (AOM) (15 mg/kg by wt, once weekly for 2 weeks) in F344 rats at 8 weeks' age. […] Rats were killed by CO2 asphyxiation 36 weeks after second AOM and the colons were removed, rinsed in PBS, opened longitudinally, and flattened on a filter paper. The location and size of each tumor were noted. Tumors were removed, snap frozen, or fixed in 10% buffered formalin for 24 hours and transferred to 80% ethanol for histopathological analysis. The number and type of colon tumors (adenoma and adenocarcinoma) were analyzed histologically blinded to treatment groups and compared with control diet fed rat colonic tumors.

[2] = tested on: AOM plus DSS induced colonic inflammation; settings: for AOM-DSS-Induced Inflammation Score: two weeks, male F344 rats
Description: Male F344 rats at 8 weeks of age treated with AOM (15 mg/Kg BW) and exposed to 2% DSS for three days. […] Further, the inflammation was scored by following below criteria:
Inflammation Score based on histological observations using the modified Sydney classification for colonic inflammation:
Following score criteria has been applied: • i. Score 0: No inflammation or changes in the colonic crypt morphology • ii. Score 1. Presence of neutrophil infiltration and chronic lymphocytic inflammation. • iii. Score 2. Surface epithelial damage, mild atrophy, lymphoid follicles • iv. Score 3: Severe atrophy and intestinal metaplasia.

[3] = tested on: small intestinal polyps and colon tumors of Apc Min/+ mice; settings: for intestinal tumor inhibition: high-dose (700 ppm)
Description: Male Apc^Min/+ (C57BL/6J) and female wild-type littermate mice were initially purchased from The Jackson Laboratory (Bar Harbor, Me.) as founders, and our own breeding colony was established in OUHSC rodent barrier facility and genotyped according to vendor's instructions. All mice were housed 3 per cage in ventilated cages under standardized conditions (21° C., 60% relative humidity, 12 h light/12 h dark cycle, 20 air changes/hr). All mice were allowed ad libitum access to the respective diets and automated tap water purified by reverse osmosis.
All diet ingredients for the semi-purified diets were purchased from Bioserve (Frenchtown, N.J.) and stored at 4° C. before diet preparation. Diets were based on the modified American Institute of Nutrition (AIN)-76A diet. […] Both control and experimental diets were prepared weekly and stored in a cold room. Agent content in the experimental diets was determined periodically in multiple samples taken from the top, middle, and bottom portions of individual diet preparations to verify uniform distribution.
Genotyped Male and female Apc^Min/+ mice were used in the efficacy study. Five week old mice were distributed so that average body weights in each group were equal (10/9 Apc^Min/+ mice in each group) and were fed with AIN-76A diet for one week. […] Body weight, food, and fluid consumption were monitored weekly for signs of weight loss or lethargy that might indicate intestinal obstruction or anemia. Mice were routinely checked for any abnormalities. After 12 weeks, all mice were euthanized by CO2 asphyxiation, blood was collected immediately by heart puncture, and serum was separated by centrifugation and stored at −80° C. until further analysis. […] After necropsy, the entire intestinal tract was harvested, flushed with 0.9% NaCl and opened longitudinally from the esophagus to the distal rectum. The tissue was flattened on filter paper to expose the tumors and briefly frozen on dry ice to aid visual scoring of tumors. The number, location, and size of visible tumors in the entire intestine were determined under a dissection microscope (×5). All tumors were scored and subdivided by location (duodenal, jejunal and ileum and colon) and size (>2 mm, 1-2 or <1 mm in diameter). This procedure was completed by two individuals who were blinded to the experimental group and the genetic status of the mice. Colonic and other small intestinal tumors that required further histopathologic evaluation to identify adenoma, adenocarcinoma, and enlarged lymph nodes were fixed in 10% neutral-buffered formalin, embedded in paraffin blocks, and processed by routine H&E staining.
All results are expressed as mean±SE and were analyzed by Student's t test. Differences were considered significant at the P<0.05 level.

[4] = 400 ppm in diet, AOM-treated male F344 rats
[5] = 800 ppm in diet, AOM-treated male F344 rats
[6] = 800 ppm in diet, saline treated male F344 rats
[7] = 350 and 700 ppm, female Apc Min/+ mice
[8] = 350 ppm in diet, female Apc Min/+ mice
[9] = 350 ppm in diet, male Apc Min/+ mice

CC1(C)Cc2c(-c3ccccc3)c(-c3ccc(Cl)cc3)c(CC(=O)NCC(=O)O)n2C1 [LFA-9, licofelone-glycine]
Total CRC Tumors (Adenoma + AdCa) incidence (% rats) [1, 4]: (40.0%) | Total CRC Tumors (Adenoma + AdCa) incidence (rats with tumors/rats) [1, 4]: 12/30 | % AdCA Inhibition (incidence) [1, 5]: 76% | % AdCA Inhibition (multiplicity) [1, 5]: 85.7% | % Inv AdCA Inhibition (incidence) [1, 5]: 92.5% | % Inv AdCA Inhibition (multiplicity) [1, 5]: 94.0% | % Non-Inv AdCA Inhibition (incidence) [1, 5]: 72.3% | % Non-Inv AdCA Inhibition (multiplicity) [1, 5]: 82.0% | % adenoma Inhibition (incidence) [1, 5]: 58.2% | % adenoma Inhibition (multiplicity) [1, 5]: 42% | % of CRC Tumor Inhibition (incidence) [1, 5]: 47.5% | % of CRC Tumor Inhibition (multiplicity) [1, 5]: 71.1% and 71.07% | AdCA Incidence (% Rats with AdCa) [1, 5]: (20.0%) | AdCA Incidence (rats with AdCa/rats) [1, 5]: 6/30 | AdCA Multiplicity (Mean ± SEM) [1, 5]: 0.23±0.05 Tumors/Rat | Adenoma Incidence (% Rats with Adenomas) [1, 5]: (26.7%) | Adenoma Incidence (rats with adenomas/rats) [1, 5]: 8/30 | Adenoma Multiplicity (Mean ± SEM) [1, 5]: 0.47±0.06 Tumors/Rat | Invasive AdCA Incidence (% Rats with Invasive AdCa) [1, 5]: (3.33%) | Invasive AdCA Incidence (rats with Invasive AdCa/rats) [1, 5]: 1/30 | Invasive AdCA Multiplicity (Mean ± SEM) [1, 5]: 0.03 ± 0.01 Tumors/Rat | Multiplicity Total CRC Tumors (Adenoma + AdCa) (Mean ± SEM) [1, 5]: 0.70 ± 0.10 Tumors/Rat | Non-Inv AdCa Incidence (% Rats with Non-Inv AdCa) [1, 5]: (20.0%) | Non-Inv AdCa Incidence (rats with Non-Inv AdCa/rats) [1, 5]: 6/30 | Non-Inv AdCa Multiplicity (Mean ± SEM) [1, 5]: 0.20 ± 0.04 Tumors/Rat | Total CRC Tumors (Adenoma + AdCa) incidence (% rats) [1, 5]: (46.6%) | Total CRC Tumors (Adenoma + AdCa) incidence (rats with tumors/rats) [1, 5]: 14/30 | AdCA Incidence [1, 6]: 0 | AdCA Multiplicity [1, 6]: 0 Tumors/Rat | Adenoma Incidence [1, 6]: 0 | Adenoma Multiplicity [1, 6]: 0 Tumors/Rat | Invasive AdCA Incidence [1, 6]: 0 | Invasive AdCA Multiplicity [1, 6]: 0 Tumors/Rat | Multiplicity Total CRC Tumors (Adenoma + AdCa) [1, 6]: 0 Tumors/Rat | Non-Inv AdCa Incidence [1, 6]: 0 | Non-Inv AdCa Multiplicity [1, 6]: 0 Tumors/Rat | Total CRC Tumors (Adenoma + AdCa) incidence [1, 6]: 0 | body weight retardation and observable toxicities ([1]; chronic administration up to 800 ppm in diet, F344 rats): did not show any significant body weight retardation and any observable toxicities | AOM-DSS-Induced Inflammation Score ([2]; 100 ppm in diet): 1 | AOM-DSS-Induced Inflammation Score ([2]; 200 ppm in diet): 0 to 1 | AOM-DSS-Induced Inflammation Score ([2]; 400 ppm in diet): 0 | AOM-DSS-Induced Inflammation Score ([2]; 600 ppm in diet): 0 | AOM-DSS-Induced Inflammation Score ([2]; 800 ppm in diet): 0 | infiltration of inflammatory cells in colonic mucosa and submucosa ([2]; >100 ppm in diet, AOM-DSS rats): significantly suppressed infiltration of inflammatory cells | inflammation ([2]; >100 ppm in diet, AOM/DSS rats): completely blocked inflammation | inflammation score ([2]; all rats fed LFA-9, lowest to highest doses (100-800 ppm)): Score 1 (lowest to highest doses) or no inflammation | toxicity in male F344 rats ([2]; up to 800 ppm in diet): did not induce significant toxicity | colonic tumors per mouse [3, 7]: 0.1 tumors per mouse | reduction in the colonic tumors [3, 7]: 90% | colon tumor inhibition [3, 8]: 90% | fewer polyps with sizes greater than 2 mm [3, 8]: 81.6% | colon tumor inhibition [3, 9]: 60% | fewer polyps with sizes greater than 2 mm [3, 9]: 76.8% | total intestinal tumors (polyps), means±SEM [3, 9]: 31.6±5.99 | suppression of polyps of greater than 2 mm size ([3]; 700 ppm in diet, both genders, Apc Min/+ mice): more than 81% | inhibition of colon tumors ([3]; 700 ppm in diet, both male and female Apc Min/+ mice): 91% | total intestinal tumors (polyps), means±SEM ([3]; 700 ppm in diet, female Apc Min/+ mice): 15.5±1.79 | total intestinal tumors (polyps), means±SEM ([3]; 700 ppm in diet, male Apc Min/+ mice): 24.3±3.7 | body weights of Apc Min/+ mice versus control diet ([3]; LFA-9 in diet (350, 700 ppm)): higher weight gains | intestinal tumor inhibition ([3]; female Apc Min/+ mice): 73.8% | intestinal tumor inhibition ([3]; male Apc Min/+ mice): approximately 56% | gross changes attributable to toxicity in liver, kidneys or lungs; body weight gain ([3]; wild-type mice): did not produce any gross changes attributable to toxicity
